Tests used:
BCL-2 = molecular target: T1, BCL-2 (Homo sapiens, UniProt P10415); assay: HTRF BCL-2/BAK assay (Cisbio); type: binding; details: recombinant human Tag1-BCL-2 2 nM, Tag2-BAK 10 nM
T1 construct: purchased Cisbio 63ADK000CB01PEG
Description: Then the pre-mixed anti-Tag1-Eu^3+ and anti-tag2-XL665 were added to the plate and further incubated at room temperature for another 2 hours. The signals ([…]) were read on Envision 2104 instrument. The IC50 for each compound was derived from fitting the signal of 665/615 nM to the increasing compound concentration.
Using the above assays, the following compounds were tested.

DOHH2 cells = assay: CellTiter-Glo cell proliferation assay, DOHH2 cells; type: cell-based; details: Homo sapiens, DOHH-2, 72 hours
Description: The CellTiter-Glo® Luminescent Cell Viability Assay (Promega, G7573) was used to study the cellular potency of disclosed compounds herein. The cells were harvested during the logarithmic growth period and counted with hemocytometer. The DOHH2 cells were seeded at 1.6*10^4 in 90 ul DMEM medium supplemented with 10% fetal bovine serum (FBS) (as RS4;11 cells were seeded at 4000 in 90 ul RPMI-1640 medium with 10% FBS) per well in 96-well plates and treated with 10 ul of a serial dilution of compounds disclosed herein (maximum concentration and dilution ratio determined by the results of pre-experiment may vary) for 72 hours in a 5% CO2 incubator at 37° C. Cell viability was assessed according to the manufacturer's recommendations. After the plates return to the room temperature, 100 ul of CellTiter-Glo® reagent was added to 100 ul of cell culture. The mixture was agitated on an orbital shaker for 2 minutes or placed it at room temperature for 10 minutes to allow cell lysis and stabilization of luminescent signals. Luminescent signals were recorded using Envision 2104 instrument. And GI50 values were then calculated.

T1 sequence (P10415 whole entry): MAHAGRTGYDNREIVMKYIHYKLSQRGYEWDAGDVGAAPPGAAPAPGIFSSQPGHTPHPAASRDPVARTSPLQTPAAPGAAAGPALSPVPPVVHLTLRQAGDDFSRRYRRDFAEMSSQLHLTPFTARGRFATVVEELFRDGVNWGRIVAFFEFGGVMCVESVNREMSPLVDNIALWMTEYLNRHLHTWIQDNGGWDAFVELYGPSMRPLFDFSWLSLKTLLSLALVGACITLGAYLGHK

Row | Structure (SMILES) | IC50 (BCL-2) | GI50 (DOHH2 cells)
1 | CC(=O)Nc1cccc2c1CCCCC2N1CCN(c2ccc(C(=O)NS(=O)(=O)c3ccc(NCC4CCOCC4)c([N+](=O)[O-])c3)c(Oc3cnc4[nH]ccc4c3)c2)CC1 (centres unmarked) [Compound 59, 2-((1H-pyrrolo[2,3-b]pyridin-5-yl)oxy)-4-(4-(1-acetamido-6,7,8,9-tetrahydro-5H-benzo[7]annulen-5-yl)piperazin-1-yl)-N-((3-nitro-4-(((tetrahydro-2H-pyran-4-yl)methyl)amino)phenyl)sulfonyl)benzamide] | < 0.02 µM | > 5 µM
2 | CS(=O)(=O)N1CCc2ccccc2C(N2CCN(c3ccc(C(=O)NS(=O)(=O)c4ccc(NCC5CCOCC5)c([N+](=O)[O-])c4)c(Oc4cnc5[nH]ccc5c4)c3)CC2)C1 (centres unmarked) [Compound 60, 2-((1H-pyrrolo[2,3-b]pyridin-5-yl)oxy)-4-(4-(3-(methylsulfonyl)-2,3,4,5-tetrahydro-1H-benzo[d]azepin-1-yl)piperazin-1-yl)-N-((3-nitro-4-(((tetrahydro-2H-pyran-4-yl)methyl)amino)phenyl)sulfonyl)benzamide] | < 0.02 µM | > 5 µM
3 | O=C(NS(=O)(=O)c1ccc(NCC2CCOCC2)c([N+](=O)[O-])c1)c1ccc(N2CC3(CCN(C4CCCc5ccccc54)C3)C2)cc1Oc1cnc2[nH]ccc2c1 (centres unmarked) [Compound 91, 2-((1H-pyrrolo[2,3-b]pyridin-5-yl)oxy)-N-((3-nitro-4-(((tetrahydro-2H-pyran-4-yl)methyl)amino)phenyl)sulfonyl)-4-(6-(1,2,3,4-tetrahydronaphthalen-1-yl)-2,6-diazaspiro[3.4]octan-2-yl)benzamide] | < 0.02 µM | 0.5 to 5 µM
4 | O=C(NS(=O)(=O)c1ccc(NCC2CCOCC2)c([N+](=O)[O-])c1)c1ccc(N2CCC3(CC2)CN(C2CCCCc4ccccc42)C3)cc1Oc1cnc2[nH]ccc2c1 (centres unmarked) [Compound 93, 2-((1H-pyrrolo[2,3-b]pyridin-5-yl)oxy)-N-((3-nitro-4-(((tetrahydro-2H-pyran-4-yl)methyl)amino)phenyl)sulfonyl)-4-(2-(6,7,8,9-tetrahydro-5H-benzo[7]annulen-5-yl)-2,7-diazaspiro[3.5]nonan-7-yl)benzamide] | 0.02 to 0.2 µM | 0.5 to 5 µM
5 | O=C(NS(=O)(=O)c1ccc(NCC2CCOCC2)c([N+](=O)[O-])c1)c1ccc(N2CC3(C2)CN(C2CCCCc4ccccc42)C3)cc1Oc1cnc2[nH]ccc2c1 (centres unmarked) [Compound 95, 2-((1H-pyrrolo[2,3-b]pyridin-5-yl)oxy)-N-((3-nitro-4-(((tetrahydro-2H-pyran-4-yl)methyl)amino)phenyl)sulfonyl)-4-(6-(6,7,8,9-tetrahydro-5H-benzo[7]annulen-5-yl)-2,6-diazaspiro[3.3]heptan-2-yl)benzamide] | 0.02 to 0.2 µM | 0.5 to 5 µM
6 | O=C(NS(=O)(=O)c1ccc(NCC2CCOCC2)c([N+](=O)[O-])c1)c1ccc(N2CC3(C2)CN(C2CCCc4ccccc42)C3)cc1Oc1cnc2[nH]ccc2c1 (centres unmarked) [Compound 96, 2-((1H-pyrrolo[2,3-b]pyridin-5-yl)oxy)-N-((3-nitro-4-(((tetrahydro-2H-pyran-4-yl)methyl)amino)phenyl)sulfonyl)-4-(6-(1,2,3,4-tetrahydronaphthalen-1-yl)-2,6-diazaspiro[3.3]heptan-2-yl)benzamide] | 0.02 to 0.2 µM | > 5 µM
7 | O=C(NS(=O)(=O)c1ccc(NCC2CCOCC2)c([N+](=O)[O-])c1)c1ccc(N2CC3(CCN(C4CCCCc5ccccc54)CC3)C2)cc1Oc1cnc2[nH]ccc2c1 (centres unmarked) [Compound 97, 2-((1H-pyrrolo[2,3-b]pyridin-5-yl)oxy)-N-((3-nitro-4-(((tetrahydro-2H-pyran-4-yl)methyl)amino)phenyl)sulfonyl)-4-(7-(6,7,8,9-tetrahydro-5H-benzo[7]annulen-5-yl)-2,7-diazaspiro[3.5]nonan-2-yl)benzamide] | 0.02 to 0.2 µM | 0.5 to 5 µM
8 | O=C(NS(=O)(=O)c1ccc(NCC2CCOCC2)c([N+](=O)[O-])c1)c1ccc(N2CC3(CCN(C4CCCCc5ccccc54)C3)C2)cc1Oc1cnc2[nH]ccc2c1 (centres unmarked) [Compound 98, 2-((1H-pyrrolo[2,3-b]pyridin-5-yl)oxy)-N-((3-nitro-4-(((tetrahydro-2H-pyran-4-yl)methyl)amino)phenyl)sulfonyl)-4-(6-(6,7,8,9-tetrahydro-5H-benzo[7]annulen-5-yl)-2,6-diazaspiro[3.4]octan-2-yl)benzamide] | 0.02 to 0.2 µM | 0.5 to 5 µM
9 | O=C(NS(=O)(=O)c1ccc(NCC2CC3CC2CN3)c([N+](=O)[O-])c1)c1ccc(N2CCN([C@@H]3CCCCc4c(Cl)cccc43)CC2)cc1Oc1cnc2[nH]ccc2c1 (stereo partly drawn) [Compound 105, 2-((1H-pyrrolo[2,3-b]pyridin-5-yl)oxy)-N-((4-(((2-azabicyclo[2.2.1]heptan-5-yl)methyl)amino)-3-nitrophenyl)sulfonyl)-4-(4-((R)-1-chloro-6,7,8,9-tetrahydro-5H-benzo[7]annulen-5-yl)piperazin-1-yl)benzamide] | < 0.02 µM | 0.05 to 0.5 µM
10 | O=C(O)CCN1CCC2(CC1)CC(CNc1ccc(S(=O)(=O)NC(=O)c3ccc(N4CCN([C@@H]5CCCCc6c(Cl)cccc65)CC4)cc3Oc3cnc4[nH]ccc4c3)cc1[N+](=O)[O-])C2 [Compound 126, (R)-3-(2-(((4-(N-(2-((1H-pyrrolo[2,3-b]pyridin-5-yl)oxy)-4-(4-(1-chloro-6,7,8,9-tetrahydro-5H-benzo[7]annulen-5-yl)piperazin-1-yl)benzoyl)sulfamoyl)-2-nitrophenyl)amino)methyl)-7-azaspiro[3.5]nonan-7-yl)propanoic acid] | < 0.02 µM | < 0.05 µM

Now from value to molecule, other results behind:

Row | IC50 (BCL-2) | Structure (SMILES) | GI50 (DOHH2 cells)
11 | < 0.02 µM | Cc1nnc2n1CC(CNc1ccc(S(=O)(=O)NC(=O)c3ccc(N4CCN(C5CCCCc6c(Cl)cccc65)CC4)cc3Oc3cnc4[nH]ccc4c3)cc1[N+](=O)[O-])CC2 (centres unmarked) [Compound 57, 2-((1H-pyrrolo[2,3-b]pyridin-5-yl)oxy)-4-(4-(1-chloro-6,7,8,9-tetrahydro-5H-benzo[7]annulen-5-yl)piperazin-1-yl)-N-((4-(((3-methyl-5,6,7,8-tetrahydro-[1,2,4]triazolo[4,3-a]pyridin-6-yl)methyl)amino)-3-nitrophenyl)sulfonyl)benzamide] | 0.5 to 5 µM
12 | < 0.02 µM | Nc1cccc2c1CCCCC2N1CCN(c2ccc(C(=O)NS(=O)(=O)c3ccc(NCC4CCOCC4)c([N+](=O)[O-])c3)c(Oc3cnc4[nH]ccc4c3)c2)CC1 (centres unmarked) [Compound 58, 2-((1H-pyrrolo[2,3-b]pyridin-5-yl)oxy)-4-(4-(1-amino-6,7,8,9-tetrahydro-5H-benzo[7]annulen-5-yl)piperazin-1-yl)-N-((3-nitro-4-(((tetrahydro-2H-pyran-4-yl)methyl)amino)phenyl)sulfonyl)benzamide] | 0.5 to 5 µM
13 | 0.02 to 0.2 µM | O=C(NS(=O)(=O)c1ccc(NCC2CCOCC2)c([N+](=O)[O-])c1)c1ccc(N2CC3(CCN(C4CCCc5ccccc54)CC3)C2)cc1Oc1cnc2[nH]ccc2c1 (centres unmarked) [Compound 92, 2-((1H-pyrrolo[2,3-b]pyridin-5-yl)oxy)-N-((3-nitro-4-(((tetrahydro-2H-pyran-4-yl)methyl)amino)phenyl)sulfonyl)-4-(7-(1,2,3,4-tetrahydronaphthalen-1-yl)-2,7-diazaspiro[3.5]nonan-2-yl)benzamide] | 0.5 to 5 µM
14 | < 0.02 µM | CC(C)(C)OC(=O)N1CC2CC1CC2CNc1ccc(S(=O)(=O)NC(=O)c2ccc(N3CCN([C@@H]4CCCCc5c(Cl)cccc54)CC3)cc2Oc2cnc3[nH]ccc3c2)cc1[N+](=O)[O-] (stereo partly drawn) [Compound 103, tert-butyl 5-(((4-(N-(2-((1H-pyrrolo[2,3-b]pyridin-5-yl)oxy)-4-(4-((R)-1-chloro-6,7,8,9-tetrahydro-5H-benzo[7]annulen-5-yl)piperazin-1-yl)benzoyl)sulfamoyl)-2-nitrophenyl)amino)methyl)-2-azabicyclo[2.2.1]heptane-2-carboxylate] | 0.05 to 0.5 µM
15 | < 0.02 µM | O=C(NS(=O)(=O)c1ccc(NCC2CC3(CCN(S(=O)(=O)C4CC4)CC3)C2)c([N+](=O)[O-])c1)c1ccc(N2CCN([C@@H]3CCCCc4c(Cl)cccc43)CC2)cc1Oc1cnc2[nH]ccc2c1 [Compound 127, (R)-2-((1H-pyrrolo[2,3-b]pyridin-5-yl)oxy)-4-(4-(1-chloro-6,7,8,9-tetrahydro-5H-benzo[7]annulen-5-y1)piperazin-1-yl)-N-((4-(((7-(cyclopropylsulfonyl)-7-azaspiro[3.5]nonan-2-yl)methyl)amino)-3-nitrophenyl)sulfonyl)benzamide] | < 0.05 µM
16 | < 0.02 µM | CC(C)S(=O)(=O)N1CCC2(CC1)CC(CNc1ccc(S(=O)(=O)NC(=O)c3ccc(N4CCN([C@@H]5CCCCc6c(Cl)cccc65)CC4)cc3Oc3cnc4[nH]ccc4c3)cc1[N+](=O)[O-])C2 [Compound 128, (R)-2-((1H-pyrrolo[2,3-b]pyridin-5-yl)oxy)-4-(4-(1-chloro-6,7,8,9-tetrahydro-5H-benzo[7]annulen-5-yl)piperazin-1-yl)-N-((4-(((7-(isopropylsulfony1)-7-azaspiro[3.5]nonan-2-yl)methyl)amino)-3-nitrophenyl)sulfony1)benzamide] | < 0.05 µM

Source: patent US20240239792A1, “MODULATORS OF BCL-2 OR BCL-2/BCL-XL AND USES THEREOF” (APPICINE THERAPEUTICS (HK) LIMITED, priority 2021, published 2024)
